Experimental data as given in ChEMBL document CHEMBL3885861, “Open TG-GATES”.

Organism: Rattus norvegicus
Experiment: Open TG-GATES - Regimen: Daily Repeat
Assay type: toxicity, organism-based, Sprague-Dawley
Design: regimen Daily Repeat, gender Male, age 6 weeks
Conditions: in vivo, po, 300 mg/kg, route gavage, dose level Middle; for APTT / Bas / Eos / Fbg / Hb / Ht / Lym / MCH / MCHC / MCV / Mono / Neu / PT / Plat / RBC / Ret / WBC: tissue Blood; for KIDNEY_L / KIDNEY_R / KIDNEY_TOTAL: tissue Kidney; for LIVER: tissue Liver; for A/G / ALP / ALT / AST / BUN / CRE / Ca / Cl / DBIL / GLC / IP / K / LDH / Na / PL / RALB / TBIL / TC / TG / TP / gamma-GTP: tissue Plasma

COc1ccc(Cl)cc1C(=O)NCCc1ccc(S(=O)(=O)NC(=O)NC2CCCCC2)cc1 [GLYBURIDE]
TERMINAL_BW (72 h, time 3 day): 227.7 g
APTT (72 h, time 3 day): 19.4 s
Bas (72 h, time 3 day): 0%
Eos (72 h, time 3 day): 1%
Fbg (72 h, time 3 day): 222.4 mg/dL
Hb (72 h, time 3 day): 13.3 g/dL
Ht (72 h, time 3 day): 39.4%
Lym (72 h, time 3 day): 79.6%
MCH (72 h, time 3 day): 21.3 pg
MCHC (72 h, time 3 day): 33.7%
MCV (72 h, time 3 day): 63.2 fL
Mono (72 h, time 3 day): 2.8%
Neu (72 h, time 3 day): 16.4%
PT (72 h, time 3 day): 12.4 s
Plat (72 h, time 3 day): 120.5 x10_4/uL
RBC (72 h, time 3 day): 624 x10_4/ul
Ret (72 h, time 3 day): 5.4%
WBC (72 h, time 3 day): 97.9 x10_2/uL
KIDNEY_L (72 h, time 3 day): 1 g
KIDNEY_R (72 h, time 3 day): 1 g
KIDNEY_TOTAL (72 h, time 3 day): 2.1 g
LIVER (72 h, time 3 day): 10.5 g
A/G (72 h, time 3 day): 1.5
ALP (72 h, time 3 day): 912.2 IU/L
ALT (72 h, time 3 day): 40.4 IU/L
AST (72 h, time 3 day): 65.4 IU/L
BUN (72 h, time 3 day): 14.2 mg/dL
CRE (72 h, time 3 day): 0.4 mg/dL
Ca (72 h, time 3 day): 10.7 mg/dL
Cl (72 h, time 3 day): 103 meq/L
DBIL (72 h, time 3 day): 0.088 mg/dL
GLC (72 h, time 3 day): 194.6 mg/dL
IP (72 h, time 3 day): 7.1 mg/dL
K (72 h, time 3 day): 3.8 meq/L
LDH (72 h, time 3 day): 190.4 IU/L
Na (72 h, time 3 day): 140.6 meq/L
PL (72 h, time 3 day): 135.6 mg/dL
RALB (72 h, time 3 day): 3.3 g/dL
TBIL (72 h, time 3 day): 0.1 mg/dL
TC (72 h, time 3 day): 72 mg/dL
TG (72 h, time 3 day): 71.4 mg/dL
TP (72 h, time 3 day): 5.4 g/dL
gamma-GTP (72 h, time 3 day): 0.6 IU/L
TERMINAL_BW ([…], time 7 day): 262.8 g
TERMINAL_BW ([…], time 14 day): 322.5 g
TERMINAL_BW ([…], time 28 day): 400.8 g
APTT ([…], time 7 day): 20.6 s
Bas ([…], time 7 day): 0%
Eos ([…], time 7 day): 1%
Fbg ([…], time 7 day): 220.6 mg/dL
Hb ([…], time 7 day): 13.6 g/dL
Ht ([…], time 7 day): 40%
Lym ([…], time 7 day): 78.4%
MCH ([…], time 7 day): 20.6 pg
MCHC ([…], time 7 day): 34%
MCV ([…], time 7 day): 60.5 fL
Mono ([…], time 7 day): 2.4%
Neu ([…], time 7 day): 17.8%
PT ([…], time 7 day): 12.5 s
Plat ([…], time 7 day): 128.7 x10_4/uL
RBC ([…], time 7 day): 661.2 x10_4/ul
Ret ([…], time 7 day): 5.2%
WBC ([…], time 7 day): 99.5 x10_2/uL
APTT ([…], time 14 day): 21.4 s
Bas ([…], time 14 day): 0%
Eos ([…], time 14 day): 1%
Fbg ([…], time 14 day): 226.6 mg/dL
Hb ([…], time 14 day): 14.1 g/dL
Ht ([…], time 14 day): 41.1%
Lym ([…], time 14 day): 81.2%
MCH ([…], time 14 day): 20.5 pg
MCHC ([…], time 14 day): 34.4%
MCV ([…], time 14 day): 59.6 fL
Mono ([…], time 14 day): 3.2%
Neu ([…], time 14 day): 13.8%
PT ([…], time 14 day): 12.3 s
Plat ([…], time 14 day): 124.7 x10_4/uL
RBC ([…], time 14 day): 689.4 x10_4/ul
Ret ([…], time 14 day): 4.5%
WBC ([…], time 14 day): 105.4 x10_2/uL
APTT ([…], time 28 day): 21.1 s
Bas ([…], time 28 day): 0%
Eos ([…], time 28 day): 1%
Fbg ([…], time 28 day): 217.4 mg/dL
Hb ([…], time 28 day): 15 g/dL
Ht ([…], time 28 day): 42.8%
Lym ([…], time 28 day): 81.6%
MCH ([…], time 28 day): 19.6 pg
MCHC ([…], time 28 day): 34.9%
MCV ([…], time 28 day): 56.1 fL
Mono ([…], time 28 day): 2.2%
Neu ([…], time 28 day): 14.8%
PT ([…], time 28 day): 12.5 s
Plat ([…], time 28 day): 110.1 x10_4/uL
RBC ([…], time 28 day): 762.8 x10_4/ul
Ret ([…], time 28 day): 2.6%
WBC ([…], time 28 day): 109.6 x10_2/uL
KIDNEY_L ([…], time 7 day): 1.1 g
KIDNEY_R ([…], time 7 day): 1.1 g
KIDNEY_TOTAL ([…], time 7 day): 2.2 g
KIDNEY_L ([…], time 14 day): 1.2 g
KIDNEY_R ([…], time 14 day): 1.2 g
KIDNEY_TOTAL ([…], time 14 day): 2.5 g
KIDNEY_L ([…], time 28 day): 1.4 g
KIDNEY_R ([…], time 28 day): 1.3 g
KIDNEY_TOTAL ([…], time 28 day): 2.7 g
LIVER ([…], time 7 day): 12.1 g
LIVER ([…], time 14 day): 14 g
LIVER ([…], time 28 day): 16.8 g
A/G ([…], time 7 day): 1.5
ALP ([…], time 7 day): 861.6 IU/L
ALT ([…], time 7 day): 33.4 IU/L
AST ([…], time 7 day): 59.2 IU/L
BUN ([…], time 7 day): 14.6 mg/dL
CRE ([…], time 7 day): 0.4 mg/dL
Ca ([…], time 7 day): 10.8 mg/dL
Cl ([…], time 7 day): 102.4 meq/L
DBIL ([…], time 7 day): 0.084 mg/dL
GLC ([…], time 7 day): 195.6 mg/dL
IP ([…], time 7 day): 6.8 mg/dL
K ([…], time 7 day): 3.8 meq/L
LDH ([…], time 7 day): 163.8 IU/L
Na ([…], time 7 day): 140.6 meq/L
PL ([…], time 7 day): 140.6 mg/dL
RALB ([…], time 7 day): 3.3 g/dL
TBIL ([…], time 7 day): 0.1 mg/dL
TC ([…], time 7 day): 67.8 mg/dL
TG ([…], time 7 day): 87.6 mg/dL
TP ([…], time 7 day): 5.6 g/dL
gamma-GTP ([…], time 7 day): 1.2 IU/L
A/G ([…], time 14 day): 1.4
ALP ([…], time 14 day): 818.6 IU/L
ALT ([…], time 14 day): 40 IU/L
AST ([…], time 14 day): 64.2 IU/L
BUN ([…], time 14 day): 15.8 mg/dL
CRE ([…], time 14 day): 0.5 mg/dL
Ca ([…], time 14 day): 10.7 mg/dL
Cl ([…], time 14 day): 102.4 meq/L
DBIL ([…], time 14 day): 0.1 mg/dL
GLC ([…], time 14 day): 178 mg/dL
IP ([…], time 14 day): 6.8 mg/dL
K ([…], time 14 day): 4 meq/L
LDH ([…], time 14 day): 162.8 IU/L
Na ([…], time 14 day): 140.4 meq/L
PL ([…], time 14 day): 166.8 mg/dL
RALB ([…], time 14 day): 3.5 g/dL
TBIL ([…], time 14 day): 0.2 mg/dL
TC ([…], time 14 day): 80.8 mg/dL
TG ([…], time 14 day): 125 mg/dL
TP ([…], time 14 day): 6 g/dL
gamma-GTP ([…], time 14 day): 1.6 IU/L
A/G ([…], time 28 day): 1.3
ALP ([…], time 28 day): 681.2 IU/L
ALT ([…], time 28 day): 35.4 IU/L
AST ([…], time 28 day): 62.2 IU/L
BUN ([…], time 28 day): 15.4 mg/dL
CRE ([…], time 28 day): 0.5 mg/dL
Ca ([…], time 28 day): 10.5 mg/dL
Cl ([…], time 28 day): 104.4 meq/L
DBIL ([…], time 28 day): 0.1 mg/dL
GLC ([…], time 28 day): 213 mg/dL
IP ([…], time 28 day): 6.2 mg/dL
K ([…], time 28 day): 3.7 meq/L
LDH ([…], time 28 day): 150.8 IU/L
Na ([…], time 28 day): 142 meq/L
PL ([…], time 28 day): 140.6 mg/dL
RALB ([…], time 28 day): 3.4 g/dL
TBIL ([…], time 28 day): 0.2 mg/dL
TC ([…], time 28 day): 67.2 mg/dL
TG ([…], time 28 day): 114.4 mg/dL
TP ([…], time 28 day): 5.9 g/dL
gamma-GTP ([…], time 28 day): 0.6 IU/L
